Assay results reported in ChEMBL document CHEMBL3885881, “DrugMatrix”.

Species on record: Rattus norvegicus
Assay: DrugMatrix - Regimen: Daily Repeat
Type: toxicity, organism-based, Sprague-Dawley
Design: regimen Daily Repeat, gender Male, age 6-8 weeks
Conditions: in vivo, po, […], route oral GAVAGE; for ABSOLUTE BASOPHIL / ABSOLUTE EOSINOPHIL / ABSOLUTE LYMPHOCYTE / ABSOLUTE MONOCYTE / ABSOLUTE SEGMENTED NEUTROPHIL / BASOPHIL / EOSINOPHIL / ERYTHROCYTE COUNT / HEMATOCRIT / HEMOGLOBIN / LEUKOCYTE COUNT / LYMPHOCYTE / MEAN CORPUSCULAR HEMOGLOBIN / MEAN CORPUSCULAR HEMOGLOBIN CONCENTRATION / MEAN CORPUSCULAR VOLUME / NEUTROPHIL / NUCLEATED RED BLOOD CELLS / PLATELET COUNT: tissue Blood
[1] = 0 mg/kg, tissue Plasma, dose level Control, time 28 day
[2] = 10 mg/kg, 72 h, dose level High, time 3 day
[3] = 10 mg/kg, 72 h, tissue Plasma, dose level High, time 3 day
[4] = 10 mg/kg, 120 h, dose level High, time 5 day
[5] = 10 mg/kg, 120 h, tissue Plasma, dose level High, time 5 day

## O=C(O)Cc1ccccc1Nc1c(Cl)cccc1Cl [DICLOFENAC]
[1]
  CREATINE PHOSPHOKINASE: 224.8 u/L
  CREATININE: 0.4 mg/dL
  PHOSPHORUS: 10.66 mg/dL
  POTASSIUM: 6.58 MEQ/L
  SODIUM: 148.6 MEQ/L
  TOTAL BILIRUBIN: 0.24 mg/dL
[2]
  ABSOLUTE BASOPHIL: 0 CELLS/uL
  ABSOLUTE EOSINOPHIL: 0 CELLS/uL
  ABSOLUTE LYMPHOCYTE: 9500.33 CELLS/uL
  ABSOLUTE MONOCYTE: 68 CELLS/uL
  ABSOLUTE SEGMENTED NEUTROPHIL: 1065 CELLS/uL
  BASOPHIL: 0%
  EOSINOPHIL: 0%
  ERYTHROCYTE COUNT: 5.04 x10E6/uL
  HEMATOCRIT: 30.83%
  HEMOGLOBIN: 12.23 G/DL
  LEUKOCYTE COUNT: 10.63 x10E3/uL
  LYMPHOCYTE: 90%
  MEAN CORPUSCULAR HEMOGLOBIN: 24.3 pg
  MEAN CORPUSCULAR HEMOGLOBIN CONCENTRATION: 39.67 G/DL
  MEAN CORPUSCULAR VOLUME: 61.23 fL
  NEUTROPHIL: 9%
  NUCLEATED RED BLOOD CELLS: 0 /100WBC
  PLATELET COUNT: 988.67 x10E3/uL
[3]
  ALANINE AMINOTRANSFERASE: 55.67 u/L
  ALBUMIN: 3.43 G/DL
  ALKALINE PHOSPHATASE: 322 u/L
  ASPARTATE AMINOTRANSFERASE: 70.67 u/L
  BLOOD UREA NITROGEN: 11.67 mg/dL
  CARBON DIOXIDE: 33.33 mmol/L
  CHLORIDE: 101 MEQ/L
  CHOLESTEROL: 79.33 mg/dL
  CREATINE PHOSPHOKINASE: 148 u/L
  CREATININE: 0.12 mg/dL
  LACTATE DEHYDROGENASE: 105 u/L
  LIPASE: 9.33 u/L
  PHOSPHORUS: 10 mg/dL
  POTASSIUM: 6.12 MEQ/L
  SODIUM: 145.77 MEQ/L
  TOTAL BILIRUBIN: 0.17 mg/dL
  URIC ACID: 1.47 mg/dL
[4]
  ABSOLUTE BASOPHIL: 0 CELLS/uL
  ABSOLUTE EOSINOPHIL: 0 CELLS/uL
  ABSOLUTE LYMPHOCYTE: 5111.33 CELLS/uL
  ABSOLUTE MONOCYTE: 0 CELLS/uL
  ABSOLUTE SEGMENTED NEUTROPHIL: 1222 CELLS/uL
  BASOPHIL: 0%
  EOSINOPHIL: 0%
  ERYTHROCYTE COUNT: 4.43 x10E6/uL
  HEMATOCRIT: 26.73%
  HEMOGLOBIN: 10.7 G/DL
  LEUKOCYTE COUNT: 6.33 x10E3/uL
  LYMPHOCYTE: 76.67%
  MEAN CORPUSCULAR HEMOGLOBIN: 24.2 pg
  MEAN CORPUSCULAR HEMOGLOBIN CONCENTRATION: 40.03 G/DL
  MEAN CORPUSCULAR VOLUME: 60.47 fL
  NEUTROPHIL: 23.33%
  NUCLEATED RED BLOOD CELLS: 0.67 /100WBC
  PLATELET COUNT: 1253.67 x10E3/uL
[5]
  ALANINE AMINOTRANSFERASE: 24 u/L
  ALBUMIN: 2.23 G/DL
  ALKALINE PHOSPHATASE: 221.33 u/L
  ASPARTATE AMINOTRANSFERASE: 56 u/L
  BLOOD UREA NITROGEN: 17.33 mg/dL
  CARBON DIOXIDE: 31.67 mmol/L
